Earlier results, collected in patent publication US9145409B2, “Benzhydryl derivatives” (CHIESI FARMACEUTICI S.p.A., priority 2013, dated 2015).

Columns and labels:
[1] = test system: smoking model of COPD in mice
[2] = COPD patients, oral, given over 4 weeks
[3] = clinical trials, 500 mg once daily given over 12 months
[4] = patients with severe disease, frequent exacerbations and mucus hypersecretion

Structure (SMILES): O=C(Nc1c(Cl)cncc1Cl)c1ccc(OC(F)F)c(OCC2CC2)c1 [roflumilast]
- CXCL8 concentrations in sputum (COPD patients; [2]): significantly reduces
- reduction of the numbers of neutrophils in sputum (COPD patients; [2]): 36%
- clinical benefit as add-on (COPD patients; added to salmeterol or tiotropium): provides clinical benefit
- exacerbations and quality of life (COPD patients; [3]): little effect in reducing exacerbations or improving quality of life
- lung function (COPD patients; [3]): improved lung function in COPD patients to a small extent
- improvement of FEV 1 (COPD patients; [4]): approximately 50 mL
- reduction of exacerbation (COPD patients; [4]): about 15%
- lung inflammation and emphysema [1]: inhibits lung inflammation and emphysema
